Measurements published in patent US20190375778A1, “ADENOSINE DERIVATIVES FOR USE IN THE TREATMENT OF CANCER” (NuCana plc, priority 2016, published 2019).

What was measured:
Murine leukemia L1210 = assay: Cell proliferation (Coulter count) assay, L1210; assay type: cell-based; conditions: Mus musculus, 48 h, read-out: absolute IC50, L1210
Summary of the method: (§1)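 Cells grown in DMEM with 10% FBS. HeLa seeded at 10 000 cells/well, compound added after 24 h, counted day 5; L1210 and CEM seeded at 60 000 cells/well with compound, counted after 48 h and 72 h respectively. IC50 is concentration halving proliferation by Coulter count.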

CCRFCEM = assay: CellTiterGlo viability assay, CCRFCEM; assay type: cell-based; conditions: Homo sapiens, CCRF-CEM, 72 h, read-out: IC50 CCRFCEM
Summary of the method: (§2)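 Viability is read by CellTiterGlo after three days of treatment. Each compound is tested at nine concentrations spaced 3.16-fold, spanning 198 μM to 19.9 nM final, in duplicate wells with DMSO held at 0.5%.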

HEL92.1.7 = assay: CellTiterGlo viability assay, HEL92.1.7; assay type: cell-based; conditions: Homo sapiens, HEL 92.1.7, 72 h, read-out: IC50 HEL92.1.7
Summary of the method: as §2

HS445 = assay: CellTiterGlo viability assay, HS445; assay type: cell-based; conditions: Hs 445, 72 h, read-out: IC50 HS445
Experimental: (§3) In vitro viability assay were performed to assess the effects of compounds on cell viability in selected cell lines over ˜72 hrs using the CellTiterGlo (CTG, Promega-G7573) assay. The tests were performed in duplicates with treatment of compounds at 9 points, 3.16 folds titration in 96 well plates over ˜72 hrs. The compound starting concentrations were 198 μM. Cell viability assay using CellTiterGlo in 96-well plate were performed. Compound treatment 72 hrs, standard growth conditions, duplicates. Compounds were dissolved to 40 mM with thawed […]. Compounds were serially diluted at 3.16 fold in thawed DMSO, and warmed to 37° C. before being dissolved in media (2 μl+200 μl). After compounds were dissolved in media, media containing compounds were warmed to 37° C. in incubator and then compounds in media were added to cell plates (50 μl+50 μl) in duplicates. The compounds' final concentrations were from […] to 19.9 nM. All compound solubilities were checked and recorded again, then the plates were transferred to CO2 tissue culture incubator immediately and incubated for 3 days. DMSO final concentration is 0.5%.

KG-1 = assay: CellTiterGlo viability assay, KG-1; assay type: cell-based; conditions: Homo sapiens, KG-1, 72 h, read-out: IC50 KG-1
Summary of the method: as §2

Jurkat = assay: CellTiterGlo viability assay, Jurkat; assay type: cell-based; conditions: Homo sapiens, 72 h, read-out: IC50 Jurkat
Experimental: as §3

K562 = assay: CellTiterGlo viability assay, K562; assay type: cell-based; conditions: Homo sapiens, K562, 72 h, read-out: IC50 K562
Summary of the method: as §2

THP-1 = assay: CellTiterGlo viability assay, THP-1; assay type: cell-based; conditions: Homo sapiens, THP-1, 72 h, read-out: IC50 THP-1
Experimental: as §3

MiaPaCa-2 = assay: CellTiterGlo viability assay, MiaPaCa-2; assay type: cell-based; conditions: Homo sapiens, MIA PaCa-2, 72 h, read-out: IC50 MiaPaCa-2
Experimental: as §3

SW620 = assay: CellTiterGlo viability assay, SW620; assay type: cell-based; conditions: Homo sapiens, SW-620, 72 h, read-out: IC50 SW620
Experimental: as §3

HepG2 = assay: CellTiterGlo viability assay, HepG2; assay type: cell-based; conditions: Homo sapiens, HepG2, 72 h, read-out: IC50 HepG2
Experimental: as §3

HT29 = assay: CellTiterGlo viability assay, HT29; assay type: cell-based; conditions: Homo sapiens, HT-29, 72 h, read-out: IC50 HT29
Experimental: as §3

MCF7 = assay: CellTiterGlo viability assay, MCF7; assay type: cell-based; conditions: Homo sapiens, MCF7, 72 h, read-out: IC50 MCF7
Experimental: as §3

BxPC-3 = assay: CellTiterGlo viability assay, BxPC-3; assay type: cell-based; conditions: Homo sapiens, BXPC-3, 72 h, read-out: IC50 BxPC-3
Experimental: as §3

NCI-H929 = assay: CellTiterGlo viability assay, NCI-H929; assay type: cell-based; conditions: Homo sapiens, NCI-H929, 72 h, read-out: IC50 NCI-H929
Summary of the method: as §2

MV4-11 = assay: CellTiterGlo viability assay, MV4-11; assay type: cell-based; conditions: Homo sapiens, MV4-11, 72 h, read-out: IC50 MV4-11
Summary of the method: as §2

RL = assay: CellTiterGlo viability assay, RL; assay type: cell-based; conditions: Homo sapiens, RL, 72 h, read-out: IC50 RL
Summary of the method: as §2

RPMI-8226 = assay: CellTiterGlo viability assay, RPMI-8226; assay type: cell-based, Human; conditions: Homo sapiens, RPMI-8226, 72 h, read-out: IC50 RPMI-8226
Summary of the method: as §2

MOLT-4 = assay: CellTiterGlo viability assay, MOLT-4; assay type: cell-based; conditions: Homo sapiens, MOLT-4, 72 h, read-out: IC50 MOLT-4
Experimental: as §3

HL-60 = assay: CellTiterGlo viability assay, HL-60; assay type: cell-based; conditions: Homo sapiens, HL-60, 72 h, read-out: IC50 HL-60
Summary of the method: as §2

Z138 = assay: CellTiterGlo viability assay, Z138; assay type: cell-based; conditions: Homo sapiens, Z-138, 72 h, read-out: IC50 Z138
Experimental: as §3

human T-lymphocyte CEM = assay: Cell proliferation (Coulter count) assay, CEM; assay type: cell-based; conditions: 72 h, read-out: absolute IC50, CEM
Summary of the method: as §1

Compound	IC50 (Murine leukemia L1210)	IC50 (CCRFCEM)	IC50 (HEL92.1.7)	IC50 (HS445)	IC50 (KG-1)	IC50 (Jurkat)	IC50 (K562)	IC50 (THP-1)	IC50 (MiaPaCa-2)	IC50 (SW620)	IC50 (HepG2)	IC50 (HT29)	IC50 (MCF7)	IC50 (BxPC-3)	IC50 (NCI-H929)	IC50 (MV4-11)	IC50 (RL)	IC50 (RPMI-8226)	IC50 (MOLT-4)	IC50 (HL-60)	also measured
CC(C)C[C@H](NP(=O)(OC[C@H]1O[C@@H](n2c(Cl)nc3c(N)ncnc32)C(O)C1O)Oc1ccccc1)C(=O)OCc1ccccc1 (stereo partly drawn) [V, 5′-([(Benzyloxy-L-leucin-N-yl)-phenyl]-phosphatyl) 8-chloroadenosine]	15 to 100 µM	5 to 15 µM	0.1 to 5 µM	15 to 100 µM	5 to 15 µM	5 to 15 µM	0.1 to 5 µM	0.1 to 5 µM	0.1 to 5 µM	0.1 to 5 µM	0.1 to 5 µM	0.1 to 5 µM	0.1 to 5 µM	5 to 15 µM	0.1 to 5 µM	0.1 to 5 µM	15 to 100 µM	0.1 to 5 µM	0.1 to 5 µM	5 to 15 µM	IC50 (Z138): 0.1 to 5 µM
C[C@H](NP(=O)(OC[C@H]1O[C@@H](n2c(Cl)nc3c(N)ncnc32)[C@H](O)[C@@H]1O)Oc1ccccc1)C(=O)OCc1ccccc1 (mixture of isomers) [C, (2S)-Benzyl 2-(((((2R,3S,4R,5R)-5-(6-amino-8-chloro-9H-purin-9-yl)-3,4-dihydroxy-tetrahydrofuran-2-yl)methoxy)(phenoxy)phosphoryl)amino)propanoate]	15 to 100 µM	5 to 15 µM	15 to 100 µM	> 100 µM	> 100 µM	15 to 100 µM	15 to 100 µM	15 to 100 µM	5 to 15 µM	15 to 100 µM	15 to 100 µM	5 to 15 µM	15 to 100 µM	15 to 100 µM	5 to 15 µM	0.1 to 5 µM	15 to 100 µM	5 to 15 µM	0.1 to 5 µM	5 to 15 µM	IC50 (human T-lymphocyte CEM): 15 to 100 µM; IC50 (Z138): 0.1 to 5 µM
CCCCCOC(=O)[C@H](C)NP(=O)(OC[C@H]1O[C@@H](n2c(Cl)nc3c(N)ncnc32)C(O)C1O)Oc1cccc2ccccc12 (stereo partly drawn) [Compound E, (2S)-Pentyl 2-(((((2R,3S,4R,5R)-5-(6-amino-8-chloro-9H-purin-9-yl)-3,4-dihydroxy-tetrahydrofuran-2-yl)methoxnaphthalene-1-yloxy)phosphoryl)amino)propanoate]	5 to 15 µM	0.1 to 5 µM	0.1 to 5 µM	15 to 100 µM	0.1 to 5 µM	0.1 to 5 µM	0.1 to 5 µM	0.1 to 5 µM	0.1 to 5 µM	0.1 to 5 µM	0.1 to 5 µM	0.1 to 5 µM	0.1 to 5 µM	5 to 15 µM	0.1 to 5 µM	0.1 to 5 µM	5 to 15 µM	0.1 to 5 µM	0.1 to 5 µM	0.1 to 5 µM	IC50 (human T-lymphocyte CEM): 0.1 to 5 µM; IC50 (Z138): 0.1 to 5 µM
Nc1ncnc2c1nc(Cl)n2[C@@H]1O[C@H](COP(=O)(NCC(=O)OC2CCCCC2)Oc2ccccc2)[C@@H](O)[C@H]1O (mixture of isomers) [Compound A, Cyclohexyl 2-(((((2R,3S,4R,5R)-5-(6-amino-8-chloro-9H-purin-9-yl)-3,4-dihydroxy-tetrahydrofuran-2-yl)methoxy)(phenoxy)phosphoryl)amino)acetate]	15 to 100 µM	5 to 15 µM	5 to 15 µM	> 100 µM	> 100 µM	15 to 100 µM	5 to 15 µM	15 to 100 µM	5 to 15 µM	15 to 100 µM	5 to 15 µM	15 to 100 µM	15 to 100 µM	15 to 100 µM	15 to 100 µM	0.1 to 5 µM	5 to 15 µM	5 to 15 µM	15 to 100 µM	5 to 15 µM	IC50 (human T-lymphocyte CEM): 15 to 100 µM; IC50 (Z138): 0.1 to 5 µM
